According to patent US20260250325A1, “Antiviral Polypeptide Membrane Fusion Inhibitor, and Preparation Method and Application Thereof” (priority 2025, published 2026):
Where a SMILES comes first, the peptide text is derived from it. The star is where a group is joined. Succinyl(4-O-cholesteryl) = CC(C)CCC[C@@H](C)[C@H]1CC[C@H]2[C@@H]3CC=C4C[C@@H](OC(=O)CCC(=O)*)CC[C@]4(C)[C@H]3CC[C@]12C

Tested on: RSV A2 virus strain
Assay: Mouse RSV A2 challenge protection, lung viral titer by plaque method
Type: in vivo, BALB/c mice
Conditions: for Mean (PFU/g lung): BALB/c mice, tracheal nebulization 1 mg/kg QD for 5 days, lung collected 2 h after final administration on Day 4; for effect on viral titer in lung tissue (in words): mice, tracheal nebulization once daily for 5 days
Description: Female BALB/c mice were from Shanghai Yishang Biotechnology Co., Ltd. HEp- 2 were from the ATCC, with a catalog number CCL-23. The cells were cultured in a DMEM medium solution in which 10% (v/v) fetal bovine serum and 1% penicillin and streptomycin were added. The RSV A2 virus strain was from the ATCC, with a catalog number VR-1540.
Eight-week-old female BALB/c mice were grouped based on body weight (n=6). All animals were intranasally challenged with RSV on Day 0 at a challenge dosage of 1×10^6 pfu (20 μL) per animal. Administration began 1 h after Day 0 challenge; the polypeptide sample, positive control, and solvent control were administered via tracheal nebulization once daily for 5 consecutive days (see Table 3 below for administration dosage and administration frequency). Lung tissue was collected from all animals 2 h after the final administration on Day 4; left lung tissue was rapidly frozen in a virus protection solution with a 10-fold volume and stored below −70° C.; and a viral titer was detected by using a plaque method.
For analysis, the lung RSV A2 virus was determined by performing a tissue homogenate viral load plaque method. In short, on the day prior to sample detection, the HEp-2 cells were inoculated into a 12-well plate (spreading density being 0.3×10^6 cells/mL, with 1000 μL of cell suspension per well) according to a standard HEp-2 cell culture operation procedure. On the day of incubation, the supernatant was taken from the tissue sample that was homogenized using a tissue homogenizer (maintaining a low-temperature environment), and the supernatant was taken after centrifugation. The tissue homogenate sample was diluted with serum-free DMEM, and inoculated into a 12-well plate at a final volume of 400 μL. After 2 h of incubation, the homogenate supernatant was discarded, and 1.5 mL of a covering layer (cell culture medium containing 1% soft agar) was added to each well and cultured in the incubator for approximately 72 h. The covering layer was discarded, the cells were fixed, blocking was performed by using a blocking solution, dyeing was performed with HRP-RSVG, development and air drying were terminated with pure water. Colored spots on the well plate were counted by using a fluorescent (enzyme-linked) immunoassay spot analyzer, and the viral titer was expressed as a plaque-forming unit per gram of tissue (PFU/g). The viral titer was calculated as an arithmetic mean±standard error of all animals in a group.
One hour after RSV A2 challenge in mice, compounds 13, 14, 17, 19, 20, 21, 26, 27, 28, and 40 were administered via tracheal nebulization once daily for 5 consecutive days; and 2 h after the final administration, lung tissue was collected from all groups for viral plaque detection, and results were shown in Table 3.

Compound	Mean (PFU/g lung)	effect on viral titer in lung tissue (in words)
CC[C@H](C)[C@H](NC(=O)[C@H](CCCCN)NC(=O)[C@H](CCCCN)NC(=O)[C@H](CC(C)C)NC(=O)[C@H](CO)NC(=O)[C@H](CCC(=O)O)NC(=O)[C@H](CCC(=O)O)NC(=O)[C@@H](NC(=O)[C@H](CCCCN)NC(=O)[C@H](CCCCN)NC(=O)[C@H](CC(N)=O)NC(=O)[C@@H](NC(=O)[C@H](CCC(=O)O)NC(=O)[C@H](CCC(=O)O)NC(=O)[C@@H](NC(=O)[C@H](CCCCN)NC(=O)[C@H](CCCCN)NC(=O)[C@H](CC(=O)O)NC(=O)[C@H](Cc1ccccc1)NC(=O)[C@H](CCC(=O)O)NC(=O)[C@H](CC(=O)O)NC(=O)[C@H](Cc1c[nH]c2ccccc12)NC(C)=O)[C@@H](C)CC)C(C)C)[C@@H](C)CC)C(=O)N[C@@H](CCC(=O)O)C(=O)N[C@@H](CCC(=O)O)C(=O)N[C@@H](CO)C(=O)N[C@@H](CC(=O)O)C(=O)N[C@@H](CCCCN)C(=O)N[C@@H](CCCCN)C(=O)N[C@@H](CC(C)C)C(=O)N[C@@H](CCC(=O)O)C(=O)N[C@@H](CCC(=O)O)C(=O)N[C@H](C(=O)N[C@@H](CC(N)=O)C(=O)N[C@@H](C)C(=O)N[C@@H](CCC(=O)O)C(=O)N[C@@H](C)C(=O)N[C@@H](C)C(=O)N[C@@H](C)C(=O)N[C@@H](CCCCN)C(=O)N[C@@H](CCCCNC(=O)CCC(=O)O[C@H]1CC[C@@]2(C)C(=CC[C@H]3[C@@H]4CC[C@H]([C@H](C)CCCC(C)C)[C@@]4(C)CC[C@@H]32)C1)C(N)=O)C(C)C [Compound 40] (Ac-WDEFDKKIEEVNKKIEESLKKIEESDKKLEEVNAEAAAKK(Succinyl(4-O-cholesteryl))-NH2)	5678 PFU/g lung	significantly reduce the viral titer in lung tissue
CC[C@H](C)[C@H](NC(=O)[C@H](CCCCN)NC(=O)[C@H](CCCCN)NC(=O)[C@H](CC(C)C)NC(=O)[C@H](CO)NC(=O)[C@H](CCC(=O)O)NC(=O)[C@H](CCC(=O)O)NC(=O)[C@@H](NC(=O)[C@H](CCCCN)NC(=O)[C@H](CCCCN)NC(=O)[C@H](CC(N)=O)NC(=O)[C@@H](NC(=O)[C@H](CCC(=O)O)NC(=O)[C@H](CCC(=O)O)NC(=O)[C@@H](NC(=O)[C@H](CCCCN)NC(=O)[C@H](CCCCN)NC(=O)[C@H](CC(=O)O)NC(=O)[C@H](Cc1ccccc1)NC(=O)[C@H](CCC(=O)O)NC(=O)[C@H](CC(=O)O)NC(=O)[C@H](CO)NC(C)=O)[C@@H](C)CC)C(C)C)[C@@H](C)CC)C(=O)N[C@@H](CCC(=O)O)C(=O)N[C@@H](CCC(=O)O)C(=O)N[C@@H](CO)C(=O)N[C@@H](CC(=O)O)C(=O)N[C@@H](CCCCN)C(=O)N[C@@H](CCCCN)C(=O)N[C@@H](CC(C)C)C(=O)NCC(=O)N[C@@H](CO)C(=O)NCC(=O)N[C@@H](CO)C(=O)NCC(=O)N[C@@H](CCCCNC(=O)CCC(=O)O[C@H]1CC[C@@]2(C)C(=CC[C@H]3[C@@H]4CC[C@H]([C@H](C)CCCC(C)C)[C@@]4(C)CC[C@@H]32)C1)C(N)=O [Compound 20] (Ac-SDEFDKKIEEVNKKIEESLKKIEESDKKLGSGSGK(Succinyl(4-O-cholesteryl))-NH2)	8928 PFU/g lung	significantly reduce the viral titer in lung tissue
Ac-WDEFDASISQVNEKINQSLEEIRKSDELLHNVNAGLGSGSGK(Succinyl(4-O-cholesteryl))-NH2 [Compound 27]	9458 PFU/g lung	significantly reduce the viral titer in lung tissue
Ac-FDEEISQVNEKINQSLAFIRKSDELLHNVNAGKSTTEAAAKK(Succinyl(4-O-cholesteryl))-NH2 [Compound 26]	5015 PFU/g lung	significantly reduce the viral titer in lung tissue
CC[C@H](C)[C@H](NC(=O)[C@H](CCCCN)NC(=O)[C@H](CCCCN)NC(=O)[C@H](CC(C)C)NC(=O)[C@H](CO)NC(=O)[C@H](CCC(=O)O)NC(=O)[C@H](CCC(=O)O)NC(=O)[C@@H](NC(=O)[C@H](CCCCN)NC(=O)[C@H](CCCCN)NC(=O)[C@H](CC(N)=O)NC(=O)[C@@H](NC(=O)[C@H](CCC(=O)O)NC(=O)[C@H](CCC(=O)O)NC(=O)[C@@H](NC(=O)[C@H](CCCCN)NC(=O)[C@H](CCCCN)NC(=O)[C@H](CC(=O)O)NC(=O)[C@H](Cc1ccccc1)NC(=O)[C@H](CCC(=O)O)NC(=O)[C@H](CC(=O)O)NC(=O)[C@H](Cc1c[nH]c2ccccc12)NC(C)=O)[C@@H](C)CC)C(C)C)[C@@H](C)CC)C(=O)N[C@@H](CCC(=O)O)C(=O)N[C@@H](CCC(=O)O)C(=O)N[C@@H](CO)C(=O)N[C@@H](CC(=O)O)C(=O)N[C@@H](CCCCN)C(=O)N[C@@H](CCCCN)C(=O)N[C@@H](CC(C)C)C(=O)N[C@@H](CCC(=O)O)C(=O)N[C@@H](C)C(=O)N[C@@H](C)C(=O)N[C@@H](C)C(=O)N[C@@H](CCCCN)C(=O)N[C@@H](CCCCNC(=O)CCC(=O)O[C@H]1CC[C@@]2(C)C(=CC[C@H]3[C@@H]4CC[C@H]([C@H](C)CCCC(C)C)[C@@]4(C)CC[C@@H]32)C1)C(N)=O [Compound 13] (Ac-WDEFDKKIEEVNKKIEESLKKIEESDKKLEAAAKK(Succinyl(4-O-cholesteryl))-NH2)	5380 PFU/g lung	significantly reduce the viral titer in lung tissue
CC[C@H](C)[C@H](NC(=O)[C@H](CO)NC(=O)[C@H](C)NC(=O)[C@H](CC(=O)O)NC(=O)[C@H](Cc1ccccc1)NC(=O)[C@H](CCC(=O)O)NC(=O)[C@H](CC(=O)O)NC(C)=O)C(=O)N[C@@H](CO)C(=O)N[C@@H](CCC(N)=O)C(=O)N[C@H](C(=O)N[C@@H](CC(N)=O)C(=O)N[C@@H](CCC(=O)O)C(=O)N[C@@H](CCCCN)C(=O)N[C@H](C(=O)N[C@@H](CC(N)=O)C(=O)N[C@@H](CCC(N)=O)C(=O)N[C@@H](CO)C(=O)N[C@@H](CC(C)C)C(=O)N[C@@H](CCC(=O)O)C(=O)N[C@@H](CCC(=O)O)C(=O)N[C@H](C(=O)N[C@@H](CCCNC(=N)N)C(=O)N[C@@H](CCCCN)C(=O)N[C@@H](CO)C(=O)N[C@@H](CC(=O)O)C(=O)N[C@@H](CCC(=O)O)C(=O)N[C@@H](CC(C)C)C(=O)N[C@@H](CC(C)C)C(=O)N[C@@H](Cc1c[nH]cn1)C(=O)N[C@@H](CC(N)=O)C(=O)N[C@@H](CCC(=O)O)C(=O)N[C@@H](C)C(=O)N[C@@H](C)C(=O)N[C@@H](C)C(=O)N[C@@H](CCCCN)C(=O)N[C@@H](CCCCNC(=O)CCC(=O)O[C@H]1CC[C@@]2(C)C(=CC[C@H]3[C@@H]4CC[C@H]([C@H](C)CCCC(C)C)[C@@]4(C)CC[C@@H]32)C1)C(N)=O)[C@@H](C)CC)[C@@H](C)CC)C(C)C [Compound 28] (Ac-DEFDASISQVNEKINQSLEEIRKSDELLHNEAAAKK(Succinyl(4-O-cholesteryl))-NH2)	8425 PFU/g lung	significantly reduce the viral titer in lung tissue
